Data on 16 compounds can be found in patent US8624034B2, “Fluoro-pyridinone derivatives useful as antibacterial agents” (Pfizer Inc., priority 2011, dated 2014).

Converted amounts (≈) assume the structure as drawn.

For experiment [1], the target named is T1, Pseudomonas aeruginosa LpxC enzyme (Pseudomonas aeruginosa, UniProt P47205).
T1 construct: made in house; host or cells: E. coli
T1 sequence (P47205 1-303): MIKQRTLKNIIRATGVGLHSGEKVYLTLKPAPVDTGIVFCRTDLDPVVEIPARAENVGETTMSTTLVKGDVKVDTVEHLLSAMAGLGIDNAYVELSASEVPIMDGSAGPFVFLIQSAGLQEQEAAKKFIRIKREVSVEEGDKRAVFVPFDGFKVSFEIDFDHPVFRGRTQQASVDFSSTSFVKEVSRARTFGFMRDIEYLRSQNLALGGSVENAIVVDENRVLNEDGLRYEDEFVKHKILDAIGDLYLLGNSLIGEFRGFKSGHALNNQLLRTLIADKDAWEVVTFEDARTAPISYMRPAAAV
The experiment in a line: IC50 assay, LpxC enzyme from P. aeruginosa (PA LpxC enzyme IC50). The experiment is classed as biochemical. As to conditions: Table 3; LpxC enzyme 0.1 nM, 25° C., 1 hour; read-out: PA:IC50. The protocol:
In order to assess the compounds biological activity, selected in vitro assays were conducted on selected compounds. One of the assays measured the compounds ability to disrupt the synthesis of lipopolysaccharide, LPS, which is a component of the outer membrane of Gram-negative bacteria. Disruption of this synthesis is lethal to the bacteria. The assay determined the compound's ability to inhibit LpxC, which is the first enzyme in the biosynthetic pathway for LPS (measured as IC50). Additionally, MICs (minimal inhibitory concentrations) were determined for several bacteria. The specific protocols are described below:
A) IC50 Assay, LpxC Enzyme from P. aeruginosa (Labeled as PA LpxC Enzyme IC50):
At the end of 1 hour, 5 ul of 1 N HCl was added to stop the enzyme reaction, the plates were centrifuged, and then processed with the BioTrove Rapidfire HTMS Mass Spectrometry System. A no-enzyme control was used in calculating the IC50 values from the percent conversion values.

Experiment [2] concerns Acinetobacter baumannii/haemolyticus, multidrug-resistant clinical isolate (AB-3167). The experiment in a line: MIC determination, AB-3167. It counts as cell-based. As to conditions: Table 3, lower of duplicate values. The protocol:
(§1) The in vitro antibacterial activity of compounds described in the Examples was evaluated by minimum inhibitory concentration (MIC) testing according to Clinical and Laboratory Standards Institute (CLSI). See: Clinical and Laboratory Standards Institute. Methods for Dilution Antimicrobial Susceptibility Tests for Bacteria that Grow Aerobically; Approved Standard-Eighth Edition. CLSI document M7-A8 [ISBN 1-56238-689-1]. Clinical and Laboratory Standards Institute, 940 West Valley Road, Suite 1400, Wayne, Pa. 19087-1898 USA, 2006; also Clinical and Laboratory Standards Institute. Performance Standards for Antimicrobial Susceptibility Testing; Twentieth Informational Supplement. CLSI document M100-S20 [ISBN 1-56238-716-2]. Clinical and Laboratory Standards Institute.
(§2) The MIC determination is a standard laboratory method for evaluating the antibacterial activity of a compound. The MIC represents the lowest drug concentration that inhibits visible growth of bacteria following overnight incubation. […] Typically, the drug concentration range is broken down into 2-fold increments (e.g. 0.06 μg/mL, 0.12 μg/mL. 0.25 μg/mL, 0.50 μg/mL, 1.0 μg/mL, etc.) and the various drug concentrations are all individually incubated overnight with approximately the same number of bacteria. The MIC is then determined by visually inspecting the drug effect at each concentration, and identifying the lowest drug concentration that has inhibited bacterial growth as compared to the drug free control. Typically, bacteria continue to grow at drug concentrations lower than the MIC and don't grow at concentrations at and above the MIC.
(§3) The MIC values described in Table 2 and 3 below were derived from assays wherein each test compound was evaluated in duplicate. In cases where the duplicate values varied by 0-2-fold, the lower of the two values was reported below. Generally speaking, if the duplicate values varied by more than 2-fold, the assay was considered non-valid and was repeated until the variation between duplicate runs was ≦2-fold. In line with the CLSI guidelines referred to above, both control organisms and reference compounds were utilized in each MIC assay to provide proper quality control. MIC values generated with these control organisms and reference compounds were required to fall within a defined range for the assay to be considered valid and be included herein. Those skilled in the art will recognize that MIC values can and do vary from experiment to experiment. Generally speaking, it should be recognized that MIC values often vary +/−2-fold from experiment to experiment. While a single MIC is reported for each compound and each microorganism, the reader should not conclude that each compound was only tested once. Several of the compounds were subjected to multiple tests. The data reported in Tables 2 and 3 is reflective of the compounds relative activity and different MICs may have been generated on these occasions in line with the guidelines described above.
(§4) The following bacterial strains were used in these MIC determinations:
2) Acinetobacter baumannii/haemolyticus: Multidrug-resistant clinical isolate labeled as AB-3167 in Tables 2 and 3;

Experiment [3] relates to Escherichia coli EC-1: VOGEL, mouse virulent. The experiment in a line: MIC determination, EC-1. It counts as cell-based. As to conditions: Escherichia coli, read-out: EC-1 (MIC), Table 3, lower of duplicate values. Here is the method:
as §1, §2, §3, §4
3) Escherichia coli EC-1: VOGEL, mouse virulent labeled as EC-1 in Tables 2 and 3;

Experiment [4] deals with PA:UC12120. As to the kind of experiment: MIC determination, PA:UC12120 (Table 3). It counts as cell-based, Pseudomonas aeruginosa. The note with it: Pseudomonas aeruginosa, UC12120, Table 3, lower of duplicate values. The protocol: as §1, §2, §3
In Table 3 below, column 1 corresponds to the Example number, column 2 provides the IUPAC name, columns 3-6 provide in vitro biological data generated in the same manner as in Table 2, columns 7 and 8 provide the retention times and mass spectra generated via LCMS, using the method described below. All data is not currently available for all compounds, as indicated by a blank cell in Table 3.

A word on the IC50: it is the midpoint of a concentration-inhibition curve. What is called MIC is the least concentration at which growth counts as inhibited.

As to `CC(=O)Nc1cccc(-c2cc(=O)n(CCC(C)(C(=O)NO)S(C)(=O)=O)cc2F)c1` (stereo not shown) [Example 61, 4-[4-(3-acetamidophenyl)-5-fluoro-2-oxopyridin-1(2H)-yl]-N-hydroxy-2-methyl-2-(methylsulfonyl)butanamide], in experiment [1], the IC50 is greater than 100 nM. The MIC in experiment [2], in experiment [3] and in experiment [4] was greater than 64 µg/mL throughout.

For the compound `CC(CCn1cc(F)c(-c2ccc(C#N)c(F)c2)cc1=O)(C(=O)NO)S(C)(=O)=O` (stereo not shown) [Example 58, 4-[4-(4-cyano-3-fluorophenyl)-5-fluoro-2-oxopyridin-1(2H)-yl]-N-hydroxy-2-methyl-2-(methylsulfonyl)butanamide], the IC50 in experiment [1] came out at 2.6 nM. Further, the MIC in experiment [2] is greater than 64 µg/mL; in experiment [3] it was 32 µg/mL (≈ 75.2 µM); in experiment [4], 8 µg/mL (≈ 18.8 µM).

As for `COc1ccc(OC)c(-c2cc(=O)n(CCC(C)(C(=O)NO)S(C)(=O)=O)cc2F)c1` (stereo not shown) [Example 54, 4-[4-(2,5-dimethoxyphenyl)-5-fluoro-2-oxopyridin-1(2H)-yl]-N-hydroxy-2-methyl-2-(methylsulfonyl)butanamide], the IC50 in experiment [1] was greater than 100 nM. In addition, the MIC in experiment [2], in experiment [3] and in experiment [4] was greater than 64 µg/mL each time.

`COc1ccc(-c2cc(=O)n(CCC(C)(C(=O)NO)S(C)(=O)=O)cc2F)cc1OC` (stereo not shown) [Example 98, 4-[4-(3,4-dimethoxyphenyl)-5-fluoro-2-oxopyridin-1(2H)-yl]-N-hydroxy-2-methyl-2-(methylsulfonyl)butanamide]: the IC50 in experiment [1] was found to be 28.5 nM. Moreover, the MIC is greater than 64 µg/mL in experiment [2], 64 µg/mL (≈ 145 µM) in experiment [3] and 32 µg/mL (≈ 72.3 µM) in experiment [4].

In the case of `COCc1cccc(-c2cc(=O)n(CCC(C)(C(=O)NO)S(C)(=O)=O)cc2F)c1` (stereo not shown) [Example 93, 4-{5-fluoro-4-[3-(methoxymethyl)phenyl]-2-oxopyridin-1(2H)-yl}-N-hydroxy-2-methyl-2-(methylsulfonyl)butanamide], in experiment [1], the IC50 amounted to 14.2 nM. Moreover, the MIC in experiment [2] was greater than 64 µg/mL; in experiment [3] it was 32 µg/mL (≈ 75 µM); in experiment [4], 8 µg/mL (≈ 18.8 µM).

As for `CC(CCn1cc(F)c(-c2ccncc2F)cc1=O)(C(=O)NO)S(C)(=O)=O` (stereo not shown) [Example 73, 4-(3′,5-difluoro-2-oxo-4,4′-bipyridin-1(2H)-yl)-N-hydroxy-2-methyl-2-(methylsulfonyl)butanamide], the concentration for half-maximal inhibition (IC50) in experiment [1] was determined as 8.3 nM. In addition, the MIC is greater than 64 µg/mL in experiment [2], greater than 64 µg/mL in experiment [3] and 8 µg/mL (≈ 19.9 µM) in experiment [4].

Take `CC(C)Oc1ncccc1-c1cc(=O)n(CCC(C)(C(=O)NO)S(C)(=O)=O)cc1F` (stereo not shown) [Example 104, 4-(5′-fluoro-2-isopropoxy-2′-oxo-3,4′-bipyridin-1′(2′H)-yl)-N-hydroxy-2-methyl-2-(methylsulfonyl)butanamide]: in experiment [1], the IC50 is greater than 100 nM. The MIC stood at 32 µg/mL (≈ 72.5 µM) in experiment [2], 8 µg/mL (≈ 18.1 µM) in experiment [3] and 32 µg/mL (≈ 72.5 µM) in experiment [4].

Regarding `Cc1ncc(-c2cc(=O)n(CCC(C)(C(=O)NO)S(C)(=O)=O)cc2F)cc1F` (stereo not shown) [Example 83, 4-(5,5′-difluoro-6-methyl-2′-oxo-3,4′-bipyridin-1′(2′H)-yl)-N-hydroxy-2-methyl-2-(methylsulfonyl)butanamide], the half-inhibitory concentration (IC50) in experiment [1] came to 27.5 nM. The MIC in experiment [2] is greater than 64 µg/mL; in experiment [3] it was greater than 64 µg/mL; in experiment [4] it was 32 µg/mL (≈ 77 µM).

Take `COc1cccc(-c2cc(=O)n(CCC(C)(C(=O)NO)S(C)(=O)=O)cc2F)c1` (stereo not shown) [Example 100, 4-[5-fluoro-4-(3-methoxyphenyl)-2-oxopyridin-1(2H)-yl]-N-hydroxy-2-methyl-2-(methylsulfonyl)butanamide]: the half-inhibitory concentration (IC50) in experiment [1] was found to be 2.5 nM. Moreover, the figures for the MIC in experiment [2], in experiment [3] and in experiment [4] were greater than 64 µg/mL, 4 µg/mL (≈ 9.7 µM) and 2 µg/mL (≈ 4.85 µM), respectively.

Take `COC(C)c1ccc(-c2cc(=O)n(CCC(C)(C(=O)NO)S(C)(=O)=O)cc2F)cc1` (stereo not shown) [Example 88, 4-{5-fluoro-4-[4-(1-methoxyethyl)phenyl]-2-oxopyridin-1(2H)-yl}-N-hydroxy-2-methyl-2-(methylsulfonyl)butanamide]: the IC50 in experiment [1] was found to be 7.6 nM. Moreover, the values for the MIC in experiment [2], in experiment [3] and in experiment [4] were greater than 64 µg/mL, 16 µg/mL (≈ 36.3 µM) and 4 µg/mL (≈ 9.08 µM), respectively.

As to `CC(CCn1cc(F)c(-c2ccc3c(c2)CNC3=O)cc1=O)(C(=O)NO)S(C)(=O)=O` (stereo not shown) [Example 108, 4-[5-fluoro-2-oxo-4-(1-oxo-2,3-dihydro-1H-isoindol-5-yl)pyridin-1(2H)-yl]-N-hydroxy-2-methyl-2-(methylsulfonyl)butanamide], in experiment [1], the half-inhibitory concentration (IC50) was 7.2 nM. Moreover, the MIC in experiment [2], in experiment [3] and in experiment [4] was greater than 64 µg/mL in each case.

For the compound `COc1cc(-c2cc(=O)n(CCC(C)(C(=O)NO)S(C)(=O)=O)cc2F)ccc1C#N` (stereo not shown) [Example 74, 4-[4-(4-cyano-3-methoxyphenyl)-5-fluoro-2-oxopyridin-1(2H)-yl]-N-hydroxy-2-methyl-2-(methylsulfonyl)butanamide], in experiment [1], the half-inhibitory concentration (IC50) amounted to 5.9 nM. Besides, the MIC in experiment [2] was greater than 64 µg/mL; in experiment [3], 64 µg/mL (≈ 146 µM); in experiment [4] it was 16 µg/mL (≈ 36.6 µM).

As to `CC(CCn1cc(F)c(-c2cccc(CO)c2F)cc1=O)(C(=O)NO)S(C)(=O)=O` (stereo not shown) [Example 122, 4-{5-fluoro-4-[2-fluoro-3-(hydroxymethyl)phenyl]-2-oxopyridin-1(2H)-yl}-N-hydroxy-2-methyl-2-(methylsulfonyl)butanamide], the IC50 in experiment [1] amounted to 2.4 nM.

`CC(CCn1cc(F)c(-c2cc[nH]n2)cc1=O)(C(=O)NO)S(C)(=O)=O` (stereo not shown) [Example 121, 4-[5-fluoro-2-oxo-4-(1H-pyrazol-3-yl)pyridin-1(2H)-yl]-N-hydroxy-2-methyl-2-(methylsulfonyl)butanamide]: the MIC in experiment [2], in experiment [3] and in experiment [4] was greater than 64 µg/mL each time.

For the compound `CC(CCn1cc(F)c(-c2ccc(F)c(CO)c2)cc1=O)(C(=O)NO)S(C)(=O)=O` (stereo not shown) [Example 105, 4-{5-fluoro-4-[4-fluoro-3-(hydroxymethyl)phenyl]-2-oxopyridin-1(2H)-yl}-N-hydroxy-2-methyl-2-(methylsulfonyl)butanamide], the MIC in experiment [2], in experiment [3] and in experiment [4] was greater than 64 µg/mL throughout.

Take `CC(CCn1cc(F)c(-c2cccc(CC(N)=O)c2)cc1=O)(C(=O)NO)S(C)(=O)=O` (stereo not shown) [Example 123, 4-{4-[3-(2-amino-2-oxoethyl)phenyl]-5-fluoro-2-oxopyridin-1(2H)-yl}-N-hydroxy-2-methyl-2-(methylsulfonyl)butanamide]: the MIC in experiment [2], in experiment [3] and in experiment [4] was greater than 64 µg/mL in each case.
